Converted amounts (≈) assume the structure as drawn.
Assays:
Experiment in all cases: MIC, agar dilution test (Isosensitest medium), Denley multipoint inoculator
Type in all cases: cell-based
E. coli Neumann = details: Escherichia coli
Excerpt: (§1) Agar dilution test (Isosensitest medium)
(§2) Denley multipoint inoculator

E. coli T 7 = details: Escherichia coli, T7
Excerpt: as §1, §2

Klebsiella 8085 = tested on: Klebsiella 8085
Excerpt: as §1, §2

E. coli A 261 = details: Escherichia coli, A261
Excerpt: as §1, §2

Q: What does the source list for `Cc1c(F)cc2c(=O)c(C(=O)O)cn3c2c1OCC3` [Example 61]?
A: MIC (E. coli Neumann): 0.125 µg/mL (≈ 0.475 µM); MIC (E. coli T 7): 0.5 µg/mL (≈ 1.9 µM); MIC (Klebsiella 8085): 0.125 µg/mL (≈ 0.475 µM); MIC (E. coli A 261): 0.5 µg/mL (≈ 1.9 µM)
